Source: patent publication US8084649B2, “Herbicides” (Syngenta Crop Protection, inc., priority 2007, dated 2011)

Assays:
Type in all cases: in vivo
[1] = test system: Digitaria sanguinalis (DIGSA); assay: Post-emergence herbicidal activity, glasshouse pot test; settings: Digitaria sanguinalis, rate 125 g/ha, evaluated after 14 or 15 days, read-out: Post-emergence activity, DIGSA (100=total damage to plant; 0=no damage to plant)
Protocol: (§1) Monocotyledonous and dicotyledonous test plants were sown in sterilised standard soil in pots. After cultivation for one day (pre-emergence) or after 10 days cultivation (post-emergence) under controlled conditions in a glasshouse, the plants were sprayed with an aqueous spray solution derived from the formulation of the technical active ingredient in 0.6 ml acetone and 45 ml formulation solution containing 10.6% Emulsogen EL (Registry number 61791-12-6), 42.2% N-methylpyrrolidone, 42.2% dipropylene glycol monomethyl ether (Registry number 34590-94-8) and 0.2% X-77 (Registry number 11097-66-8). The test plants were then grown in a greenhouse under optimum conditions until, 14 or 15 days later for post-emergence and 20 days for pre-emergence, the test was evaluated (100=total damage to plant; 0=no damage to plant). Alopecurus myosuroides (ALOMY), Avena fatua (AVEFA), Lolium perenne (LOLPE), Setaria faberi (SETFA), Digitaria sanguinalis (DIGSA), Echinochloa crus-galli (ECHCG) Post-Emergence Activity

Setaria faberi (SETFA) [2] = assay: as above; settings: Setaria faberi, rate 125 g/ha, evaluated after 14 or 15 days, read-out: Post-emergence activity, SETFA (100=total damage to plant; 0=no damage to plant)
Protocol: as §1

[3] = test system: Alopecurus myosuroides (ALOMY); assay: as above; settings: Alopecurus myosuroides, rate 125 g/ha, evaluated after 14 or 15 days, read-out: Post-emergence activity, ALOMY (100=total damage to plant; 0=no damage to plant)
Protocol: as §1

Lolium perenne (LOLPE) [4] = assay: as above; settings: Lolium perenne, rate 125 g/ha, evaluated after 14 or 15 days, read-out: Post-emergence activity, LOLPE (100=total damage to plant; 0=no damage to plant)
Protocol: as §1

Avena fatua (AVEFA) [5] = assay: as above; settings: Avena fatua, rate 125 g/ha, evaluated after 14 or 15 days, read-out: Post-emergence activity, AVEFA (100=total damage to plant; 0=no damage to plant)
Protocol: as §1

[6] = test system: Echinochloa crus-galli (ECHCG); assay: as above; settings: Echinochloa crus-galli, rate 125 g/ha, evaluated after 14 or 15 days, read-out: Post-emergence activity, ECHCG (100=total damage to plant; 0=no damage to plant)
Protocol: as §1

[7] = test system: Digitaria sanguinalis (DIGSA); assay: Pre-emergence herbicidal activity, glasshouse pot test; settings: Digitaria sanguinalis, 480 h, rate 500 g/ha, evaluated after 20 days, read-out: Pre-emergence activity, DIGSA (100=total damage to plant; 0=no damage to plant)
Protocol: as §1, with “Pre-Emergence” for “Post-Emergence”

Setaria faberi (SETFA) [8] = assay: as above; settings: Setaria faberi, 480 h, rate 500 g/ha, evaluated after 20 days, read-out: Pre-emergence activity, SETFA (100=total damage to plant; 0=no damage to plant)
Protocol: as §1, with “Pre-Emergence” for “Post-Emergence”

[9] = test system: Alopecurus myosuroides (ALOMY); assay: as above; settings: Alopecurus myosuroides, 480 h, rate 500 g/ha, evaluated after 20 days, read-out: Pre-emergence activity, ALOMY (100=total damage to plant; 0=no damage to plant)
Protocol: as §1, with “Pre-Emergence” for “Post-Emergence”

Lolium perenne (LOLPE) [10] = assay: as above; settings: Lolium perenne, 480 h, rate 500 g/ha, evaluated after 20 days, read-out: Pre-emergence activity, LOLPE (100=total damage to plant; 0=no damage to plant)
Protocol: as §1, with “Pre-Emergence” for “Post-Emergence”

Avena fatua (AVEFA) [11] = assay: as above; settings: Avena fatua, 480 h, rate 500 g/ha, evaluated after 20 days, read-out: Pre-emergence activity, AVEFA (100=total damage to plant; 0=no damage to plant)
Protocol: as §1, with “Pre-Emergence” for “Post-Emergence”

[12] = test system: Echinochloa crus-galli (ECHCG); assay: as above; settings: Echinochloa crus-galli, 480 h, rate 500 g/ha, evaluated after 20 days, read-out: Pre-emergence activity, ECHCG (100=total damage to plant; 0=no damage to plant)
Protocol: as §1, with “Pre-Emergence” for “Post-Emergence”

Row | Compound | pest or weed control at 125 g/ha [1] [%] | pest or weed control at 125 g/ha (Setaria faberi (SETFA) [2]) [%] | pest or weed control at 125 g/ha [3] [%] | pest or weed control at 125 g/ha (Lolium perenne (LOLPE) [4]) [%] | pest or weed control at 125 g/ha (Avena fatua (AVEFA) [5]) [%] | pest or weed control at 125 g/ha [6] [%] | pest or weed control at 500 g/ha [7] [%] | pest or weed control at 500 g/ha (Setaria faberi (SETFA) [8]) [%] | pest or weed control at 500 g/ha [9] [%] | pest or weed control at 500 g/ha (Lolium perenne (LOLPE) [10]) [%] | pest or weed control at 500 g/ha (Avena fatua (AVEFA) [11]) [%] | pest or weed control at 500 g/ha [12] [%]
1 | CCOC1=C(c2c(CC)cc(C)cc2CC)C(=O)CC2(CCOCC2)C1 [Compound P33] | 30 | 0 | 20 | 0 | 0 | 0 | 70 | 10 | 90 | 50 | 30 | 10
2 | CCc1cc(C)cc(CC)c1C1=C(OC(=O)CC2CCCC2)CC2(CCOCC2)CC1=O [Compound P11] | 70 | 70 | 90 | 90 | 100 | 70 | 100 | 100 | 100 | 90 | 90 | 90
3 | CCOC(=O)OC1=C(c2c(CC)cc(C)cc2CC)C(=O)CC2(CCOCC2)C1 [Compound P16] | 100 | 70 | 100 | 100 | 90 | 100 | 100 | 100 | 100 | 100 | 100 | 100
4 | CCc1cc(C)cc(CC)c1C1=C(O)CC2(CC[S+]([O-])CC2)CC1=O (stereo not drawn) [Compound T52] | 60 | 20 | 60 | 40 | 60 | 30 | 70 | 70 | 90 | 100 | 100 | 10
5 | CCc1cc(C)cc(CC)c1C1=C(O)CC(CC(C)[S+]([O-])C(C)C)CC1=O (stereo not drawn) [Compound T55] | 80 | 60 | 90 | 80 | 80 | 90 | 100 | 90 | 100 | 100 | 90 | 100
